From PubChem BioAssay (NCI)
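Dose response: 5 concentrations. Exposure: 48 h. Format: 96-well plates. Endpoint: linear interpolation; highest concentration if not reached. Here, GI50 denotes the concentration required for 50% inhibition of growth. Definition used: TGI = concentration required for complete inhibition of growth.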

Legend:
Experiment in all cases: DTP human tumour cell line panel, 48 h
HT29 colon = system: HT29 colon
CCRF-CEM leukemia = system: CCRF-CEM leukemia
SW-620 colon = system: SW-620 colon
UACC-257 melanoma = system: UACC-257 melanoma
A498 renal = system: A498 renal
TK-10 renal = system: TK-10 renal
COLO 205 colon = system: COLO 205 colon
MDA-MB-468 breast = system: MDA-MB-468 breast
NCI-H23 lung = system: NCI-H23 lung
IGROV1 ovarian = system: IGROV1 ovarian
ACHN renal = system: ACHN renal
MCF7 breast = system: MCF7 breast
RXF 393 renal = system: RXF 393 renal
SNB-75 CNS = system: SNB-75 CNS
SNB-19 CNS = system: SNB-19 CNS
NCI-H460 lung = system: NCI-H460 lung
SF-539 CNS = system: SF-539 CNS
BT-549 breast = system: BT-549 breast
T-47D breast = system: T-47D breast
K-562 leukemia = system: K-562 leukemia
OVCAR-3 ovarian = system: OVCAR-3 ovarian
HCT-15 colon = system: HCT-15 colon
MDA-MB-435 = system: MDA-MB-435
HL-60(TB) leukemia = system: HL-60(TB) leukemia
KM12 colon = system: KM12 colon
HOP-62 NSCLC = system: HOP-62 NSCLC
786-0 renal = system: 786-0 renal
SK-OV-3 ovarian = system: SK-OV-3 ovarian
SK-MEL-5 melanoma = system: SK-MEL-5 melanoma
LOX IMVI melanoma = system: LOX IMVI melanoma
CAKI-1 renal = system: CAKI-1 renal
HS 578T breast = system: HS 578T breast
HCC-2998 colon = system: HCC-2998 colon
OVCAR-8 ovarian = system: OVCAR-8 ovarian
U251 CNS = system: U251 CNS
DU-145 prostate = system: DU-145 prostate
UO-31 renal = system: UO-31 renal
UACC-62 melanoma = system: UACC-62 melanoma
RPMI-8226 leukemia = system: RPMI-8226 leukemia
SF-295 CNS = system: SF-295 CNS
PC-3 prostate = system: PC-3 prostate
MOLT-4 leukemia = system: MOLT-4 leukemia
OVCAR-5 ovarian = system: OVCAR-5 ovarian
HOP-92 NSCLC = system: HOP-92 NSCLC
MDA-MB-231 breast = system: MDA-MB-231 breast
EKVX NSCLC = system: EKVX NSCLC
NCI-H226 lung = system: NCI-H226 lung
SK-MEL-2 melanoma = system: SK-MEL-2 melanoma
NCI-H522 lung = system: NCI-H522 lung
SK-MEL-28 melanoma = system: SK-MEL-28 melanoma
SR leukemia = system: SR leukemia
HCT-116 colon = system: HCT-116 colon
A549 NSCLC = system: A549 NSCLC
M14 melanoma = system: M14 melanoma
NCI/ADR-RES ovarian = system: NCI/ADR-RES ovarian
OVCAR-4 ovarian = system: OVCAR-4 ovarian
MALME-3M melanoma = system: MALME-3M melanoma
SF-268 CNS = system: SF-268 CNS
SN12C renal = system: SN12C renal

Cc1ccc(C2CC(c3ccc(NC(=O)Nc4ccccc4)cc3)=NN2c2ccc(S(C)(=O)=O)cc2)cc1 (stereo not drawn)
GI50 (HT29 colon): 1.91 µM | TGI (HT29 colon): 4.97 µM | GI50 (CCRF-CEM leukemia): 2.53 µM | TGI (CCRF-CEM leukemia): 6.98 µM | GI50 (SW-620 colon): 2.6 µM | TGI (SW-620 colon): 12.1 µM | GI50 (UACC-257 melanoma): 6.15 µM | TGI (UACC-257 melanoma): 22.6 µM | GI50 (A498 renal): 2.73 µM | TGI (A498 renal): 6.97 µM | GI50 (TK-10 renal): 4.52 µM | TGI (TK-10 renal): 17.1 µM | GI50 (COLO 205 colon): 1.93 µM | TGI (COLO 205 colon): 3.65 µM | GI50 (MDA-MB-468 breast): 2.09 µM | TGI (MDA-MB-468 breast): 5.66 µM | GI50 (NCI-H23 lung): 2.48 µM | TGI (NCI-H23 lung): 8.48 µM | GI50 (IGROV1 ovarian): 2.91 µM | TGI (IGROV1 ovarian): 11 µM | GI50 (ACHN renal): 2.99 µM | TGI (ACHN renal): 9.59 µM | GI50 (MCF7 breast): 2.11 µM | TGI (MCF7 breast): 6.79 µM | GI50 (RXF 393 renal): 1.84 µM | TGI (RXF 393 renal): 5.08 µM | GI50 (SNB-75 CNS): 4.44 µM | TGI (SNB-75 CNS): 19.3 µM | GI50 (SNB-19 CNS): 5.53 µM | TGI (SNB-19 CNS): 18.4 µM | GI50 (NCI-H460 lung): 2.2 µM | TGI (NCI-H460 lung): 5.6 µM | GI50 (SF-539 CNS): 2.28 µM | TGI (SF-539 CNS): 6.05 µM | GI50 (BT-549 breast): 2.95 µM | TGI (BT-549 breast): 7.93 µM | GI50 (T-47D breast): 3.02 µM | TGI (T-47D breast): 11.1 µM | GI50 (K-562 leukemia): 3.14 µM | TGI (K-562 leukemia): 70.9 µM | GI50 (OVCAR-3 ovarian): 1.93 µM | TGI (OVCAR-3 ovarian): 4.47 µM | GI50 (HCT-15 colon): 1.95 µM | TGI (HCT-15 colon): 5.4 µM | GI50 (MDA-MB-435): 2.94 µM | TGI (MDA-MB-435): 12.3 µM | GI50 (HL-60(TB) leukemia): 2.09 µM | TGI (HL-60(TB) leukemia): 6.11 µM | GI50 (KM12 colon): 3.15 µM | TGI (KM12 colon): 10.7 µM | GI50 (HOP-62 NSCLC): 6.94 µM | TGI (HOP-62 NSCLC): 21.4 µM | GI50 (786-0 renal): 2.24 µM | TGI (786-0 renal): 6.1 µM | GI50 (SK-OV-3 ovarian): 7.96 µM | TGI (SK-OV-3 ovarian): 21.2 µM | GI50 (SK-MEL-5 melanoma): 2.34 µM | TGI (SK-MEL-5 melanoma): 6.28 µM | GI50 (LOX IMVI melanoma): 1.68 µM | TGI (LOX IMVI melanoma): 3.07 µM | GI50 (CAKI-1 renal): 3.34 µM | TGI (CAKI-1 renal): 11.6 µM | GI50 (HS 578T breast): 3.47 µM | TGI (HS 578T breast): 17.2 µM | GI50 (HCC-2998 colon): 2.38 µM | TGI (HCC-2998 colon): 6.27 µM | GI50 (OVCAR-8 ovarian): 4.83 µM | TGI (OVCAR-8 ovarian): 21.7 µM | GI50 (U251 CNS): 4.36 µM | TGI (U251 CNS): 17.1 µM | GI50 (DU-145 prostate): 4.43 µM | TGI (DU-145 prostate): 18.2 µM | GI50 (UO-31 renal): 2.58 µM | TGI (UO-31 renal): 11.2 µM | GI50 (UACC-62 melanoma): 3.19 µM | TGI (UACC-62 melanoma): 13.4 µM | GI50 (RPMI-8226 leukemia): 2.48 µM | TGI (RPMI-8226 leukemia): 7.98 µM | GI50 (SF-295 CNS): 2.58 µM | TGI (SF-295 CNS): 8.35 µM | GI50 (PC-3 prostate): 2.82 µM | TGI (PC-3 prostate): 11.8 µM | GI50 (MOLT-4 leukemia): 2.42 µM | TGI (MOLT-4 leukemia): 8.14 µM | GI50 (OVCAR-5 ovarian): 2.27 µM | TGI (OVCAR-5 ovarian): 6.78 µM | GI50 (HOP-92 NSCLC): 2.35 µM | TGI (HOP-92 NSCLC): 8.22 µM | GI50 (MDA-MB-231 breast): 2.11 µM | TGI (MDA-MB-231 breast): 4.94 µM | GI50 (EKVX NSCLC): 2.61 µM | TGI (EKVX NSCLC): 11.1 µM | GI50 (NCI-H226 lung): 2.41 µM | TGI (NCI-H226 lung): 7.04 µM | GI50 (SK-MEL-2 melanoma): 7.39 µM | TGI (SK-MEL-2 melanoma): 22.3 µM | GI50 (NCI-H522 lung): 2.24 µM | TGI (NCI-H522 lung): 10.6 µM | GI50 (SK-MEL-28 melanoma): 3.39 µM | TGI (SK-MEL-28 melanoma): 11.9 µM | GI50 (SR leukemia): 2.59 µM | TGI (SR leukemia): 10.7 µM | GI50 (HCT-116 colon): 1.72 µM | TGI (HCT-116 colon): 3.56 µM | GI50 (A549 NSCLC): 3.46 µM | TGI (A549 NSCLC): 16 µM | GI50 (M14 melanoma): 3.28 µM | TGI (M14 melanoma): 12.6 µM | GI50 (NCI/ADR-RES ovarian): 2.5 µM | TGI (NCI/ADR-RES ovarian): 7.74 µM | GI50 (OVCAR-4 ovarian): 2.84 µM | TGI (OVCAR-4 ovarian): 11.3 µM | GI50 (MALME-3M melanoma): 2.47 µM | TGI (MALME-3M melanoma): 8.74 µM | GI50 (SF-268 CNS): 3.82 µM | TGI (SF-268 CNS): 15.5 µM | GI50 (SN12C renal): 1.69 µM | TGI (SN12C renal): 3.16 µM
